Data set [1] can be described thus: Plasma protein binding assay (equilibrium dialysis). The class given is in vitro ADME. The conditions noted are these: human plasma, 2 μM, dialysis 4 hours at 37° C. As to the method:
The dialysis device used in this example is a 96-well equilibrium dialysis plate (Cat #1006, HT Dialysis LLC, Gales Gerry, CT), and HTD 96 a/b dialysis membrane strips (Cat #1101, MWCO 12-14 kDa, HT Dialysis LLC). The dialysis device was assembled following the manufacturer's instructions.
The dialysis membrane strips were soaked in ultra-pure water at room temperature for approximately 1 hour. Each membrane strip containing 2 membranes was separated and soaked in 20:80 ethanol/water (v/v) for approximately 20 minutes, after which they were ready for used or were stored in the solution at 2-8° C. for up to a month. Prior to experiment, the membrane was rinsed and soaked for 20 minutes in ultra-pure water.
On the day of the experiment, the plasma was thawed by running under col tap water and centrifuged at 3220 rpm for 5 minutes to remove any clos. The pH value of the resulting plasma was checked. Only plasma with pH value with 7.0-8.0 could be used.
Both test and control compounds were dissolved in DMSO to achieve 10 mM stock solutions. Working solutions (400 μM) if test and control compounds were prepared by diluting 10μ p of stock solutions with 240 μL of DMSO. Loading matrix solutions (2 μM) of both test and control compounds were prepared by diluting 5 μL of working solutions with 995 μL of blank matrix.
To prepare the loading matrix containing the test compound or control compounds, aliquots of either test compound working solutions or control compound working solution were spiked into blank matrix to achieve final test concentrations. The concentration of organic solvent in the final solutions were no more than 1% (normally 0.5%). The samples were mixture thoroughly before being used.
To prepare the time zero (TO) samples to be used for recovery determinations. 50 μL aliquots of loading matrix solution were transferred in triplicate to the sample collection plate. The samples were immediately matched with opposite blank buffer to obtain a final volume of 100 μL of 1:1 matrix/dialysis buffer (v/v) in each well. 500 μL of stop solution were added to these TO samples. They were then stored at 2-8° C. pending further processes along with other post-dialysis samples.
To load the dialysis device, an aliquot of 150 μL of the loading matrix was transferred to the donor side of each dialysis well in triplicate, and 150 μL of the dialysis buffer was loaded to the received side of the well. The dialysis was placed in humidified incubator at 37° C. with 5% CO2 on a shaking platform that rated slowly (about 100 rpm) for 4 hours.
At the end of the dialysis, aliquots of 50 μL of samples were taken from both the buffer side and the matrix side of the dialysis deice. These samples were transferred into new 96-well plates (the sample collection plates). […]
(In general: In equilibrium dialysis free small molecules cross a membrane that holds back macromolecules.)

The target in another data set is human PDE-6C (Homo sapiens, UniProt P51160). As to the kind of experiment: Human PDE-6C inhibition assay (fluorescence polarization). The class given is biochemical. The conditions noted are these: human PDE6C, 100 nM FAM-cGMP, 60 minutes at room temperature. (Polarisation of emitted light reports the rotation of a fluorescent probe.)
Another data set deals with human PDE-5A1 (Homo sapiens, UniProt O76074). The data set is described as follows: Human PDE-5A1 inhibition assay (fluorescence polarization). The class given is biochemical. The conditions noted are these: human PDE5A1, 100 nM FAM-cGMP, 60 minutes at room temperature.
In data set [2] the test system is ocular normotensive rabbits. The data set is described as follows: In vivo intraocular pressure (IOP) lowering effect in rabbits. Also noted: species or system New Zealand white rabbits. The conditions noted are these: 50 μL per eye once, right eye vs vehicle in left eye, 1-10 hours post dose. The text has this: This example illustrates the procedures and results of the intraocular pressure (IOP) lowering effect of compound 18 as compared to Latanoprostene bunod and latanoprost at different concentrations in ocular normotensive rabbits.
Forty (40) male New Zealand white rabbits were divided into 4 groups with 10 animals per group. Animals were then randomly assigned to groups based on body weight.
Latanoprostene bunod ophthalmic solution (LBN, 0.024%) and latanoprost eye drops (0.005%) were used as positive controls and dosed with the same volumes into the right eyes of the tested animals in groups 1 and 2 once.
Compound 18 was instilled into the right eyes of the tested animals in groups 3 (10 mg/mL) and 4 (20 mg/mL) at 50 μL per eye once.
All left eyes of the tested animals in each group were dosed with vehicle solution at 50 μL per eye.
The intraocular pressures (IOPs) were measured once at pre-dose and then once at 1, 2, 4, 6, 8, and 10 hours post dose for each group of animals. FIGS. 1 to 4 show the results from the IOP lowering studies for all four tested groups.

These results are taken from US20220380376A1, “Nitrogen Oxide-Donating PDE-5 and/or PDE-6 Inhibitor Compounds” (ILDONG PHARMACEUTICAL CO., LTD., priority 2019, published 2022).

For orientation: IC50 means the concentration at which inhibition is half-maximal. The low end stands for higher potency, the high end for lower potency.

Each structure is given as a SMILES string.

Chain of human PDE-6C (P51160 whole entry): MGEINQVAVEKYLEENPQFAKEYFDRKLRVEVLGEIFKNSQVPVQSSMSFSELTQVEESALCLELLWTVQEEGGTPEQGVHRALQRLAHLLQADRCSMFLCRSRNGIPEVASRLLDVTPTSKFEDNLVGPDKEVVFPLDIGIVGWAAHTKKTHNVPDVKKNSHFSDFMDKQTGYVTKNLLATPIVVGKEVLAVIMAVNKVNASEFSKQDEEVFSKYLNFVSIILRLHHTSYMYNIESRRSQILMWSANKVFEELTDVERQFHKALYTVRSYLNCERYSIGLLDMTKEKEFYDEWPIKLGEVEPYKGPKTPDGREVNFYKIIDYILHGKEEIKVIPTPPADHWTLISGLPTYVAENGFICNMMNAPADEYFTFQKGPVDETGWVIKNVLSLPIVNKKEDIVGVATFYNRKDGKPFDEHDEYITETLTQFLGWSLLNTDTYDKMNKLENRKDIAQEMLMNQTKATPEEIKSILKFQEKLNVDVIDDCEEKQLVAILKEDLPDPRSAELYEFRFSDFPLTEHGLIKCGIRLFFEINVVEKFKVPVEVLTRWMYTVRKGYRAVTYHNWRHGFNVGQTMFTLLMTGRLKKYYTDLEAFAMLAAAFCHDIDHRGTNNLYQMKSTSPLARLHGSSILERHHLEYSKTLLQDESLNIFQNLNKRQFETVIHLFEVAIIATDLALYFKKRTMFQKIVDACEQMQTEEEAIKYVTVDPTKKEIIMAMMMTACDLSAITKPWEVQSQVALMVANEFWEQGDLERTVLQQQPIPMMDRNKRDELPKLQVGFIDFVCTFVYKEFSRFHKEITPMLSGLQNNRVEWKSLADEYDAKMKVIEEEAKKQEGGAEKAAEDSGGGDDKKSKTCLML

In the case of `CCCc1nn(C)c2c(=O)[nH]c(-c3cc(S(=O)(=O)N4CC(CCCO)C4)ccc3OCC)nc12` [Compound 4, 5-(2-ethoxy-5-((3-(3-hydroxypropyl)azetidin-1-yl)sulfonyl)phenyl)-1-methyl-3-propyl-1,6-dihydro-7H-pyrazolo[4,3-d]pyrimidin-7-one], in data set [1], the “% Bound” value is given as 96.01%.

`CCCc1nn(C)c2c(=O)[nH]c(-c3cc(S(=O)(=O)N4CC(NCCCO)C4)ccc3OCC)nc12` [Compound 10, 5-(2-ethoxy-5-((3-((3-hydroxypropyl)amino)azetidin-1-yl)sulfonyl)phenyl)-1-methyl-3-propyl-1,6-dihydro-7H-pyrazolo[4,3-d]pyrimidin-7-one]: the “% Bound” value in data set [1] came out at 86.19%. For the same compound, the IC50 at human PDE-6C and against human PDE-5A1 was less than 0.01 µM in each case.

`CCCc1nn(C)c2c(=O)[nH]c(-c3cc(S(=O)(=O)N4CC(CCCO[N+](=O)[O-])C4)ccc3OCC)nc12` [Compound 18, 3-(1-((4-ethoxy-3-(1-methyl-7-oxo-3-propyl-6,7-dihydro-1H-pyrazolo[4,3-d]pyrimidin-5-yl)phenyl)sulfonyl)azetidin-3-yl)propyl nitrate]: in data set [1], the “% Bound” value amounted to 99.52%. The IC50 on human PDE-6C and against human PDE-5A1 was less than 0.01 µM each time. For the same compound, the IOP lowering effect result in data set [2] (10 mg/mL) and in data set [2] (20 mg/mL) was “significantly lower the IOP” each time.

`CCCc1nn(C)c2c(=O)[nH]c(-c3cc(S(=O)(=O)N4CC(NCCCO[N+](=O)[O-])C4)ccc3OCC)nc12` [Compound 22, 3-((1-((4-ethoxy-3-(1-methyl-7-oxo-3-propyl-6,7-dihydro-1H-pyrazolo[4,3-d]pyrimidin-5-yl)phenyl)sulfonyl)azetidin-3-yl)amino)propyl nitrate]: the “% Bound” value in data set [1] amounted to 97.53%.

In the case of `CCCc1nn(C)c2c(=O)[nH]c(-c3cc(S(=O)(=O)N4CC(CCO[N+](=O)[O-])C4)ccc3OCC)nc12` [Compound 17, 2-(1-((4-ethoxy-3-(1-methyl-7-oxo-3-propyl-6,7-dihydro-1H-pyrazolo [4,3-d]pyrimidin-5-yl)phenyl)sulfonyl)azetidin-3-yl)ethyl nitrate], the IC50 on human PDE-6C and against human PDE-5A1 was less than 0.01 µM each time.
